Marks after values point to notes of the source that are not given here.
Tests used:
Hsp70 = test: Tissue Hsp70 level in young female rats (Western blot); type: in vivo, rat; settings: 10 mg/kg daily, 15 days
Description: Female Sprague-Dawley rats (8 weeks old) were maintained under a 12-h dark/light cycle at about 22° C. and allowed food and water ad libitum. Drug treated animals received a daily bolus dose of (−) Schisandrin B, α-lipoic acid (α-LA) or α-tocopherol (α-Toc) at 10, 5 and 70 mg/kg, respectively, for 15 days. The dosages were determined with reference to the equivalent amount of crude herb prescribed for human or the daily recommended intake in health supplements. The control animals received olive oil only. Twenty-four hours after the last dose, the pentobarbital-anesthetized animals were sacrificed by cardiac excision, and brain. heart, liver and skeletal muscle tissues were obtained.
Hsp25 and Hsp70 levels was estimated by Western blot analysis using specific antibodies (anti-Hsp25, catalog #SPA-801; anti-Hsp70, catalog #SPA-812) from StressGen (Vancouver, BC, Canada) following SDS-PAGE analysis of the nuclear-free tissue homogenates, using a separating gel of 10% acrylamide as described in Ip et. al. (2001). Hsp25/27 and Hsp70 (human recombinant proteins from StressGen) and actin (bovine muscle from Sigma) were used as markers for reference. […] All immuno-blots were analyzed by densitometry, and the amounts (arbitrary units) of Hsp were normalized with reference to actin levels (arbitrary units) in the sample.

Myocardial Mitochondria = test: Myocardial mitochondrial ATP generation capacity, young male and female rats; type: in vivo, rat; settings: 35 days
Description: Male/Female adult Sprague-Dawley rats (˜10 weeks old) were maintained under a 12-h dark/light cycle at about 22° C. and allowed food and water ad libitum. Animals were randomly divided into groups, with at least 5 animals in each. In the pretreatment groups, rats were treated intragastrically with (−) Schisandrin B at a daily dose of 1 or 10 mg/kg for 35 days. Control animals received oil only (10 ml/kg). Twenty-four hours following the last dosing, hearts were isolated from control or drug-pretreated rats and then subjected to Langendorff perfusion as described below.
Myocardial tissue samples were rinsed with ice-cold isotonic buffer (50 mM Tris, 0.32 M sucrose, 1 mM Na2EDTA, 0.2 mg/ml soybean trypsin inhibitor, 0.2 mg/ml bacitracine, 0.16 mg/ml benzamidine). Tissue homogenates were prepared by homogenizing 0.8 g of myocardial tissue in 8 ml ice-cold isotonic buffer and the homogenates were used for the preparation of mitochondrial fractions by differential centrifugation, as described in Chiu and Ko (2004). The mitochondrial pellets were resuspended in 1.5 ml of isotonic buffer containing 150 μl of 2 mg/ml soybean trypsin inhibitor and constituted the mitochondrial fractions.
Myocardial mitochondrial ATP generation capacity was measured by incubating 200 μl of nucleus-free tissue homogenate with 200 μl of substrate solution (containing 100 mM glutamate and 34 mM malate) and 20 μl ADP (2.3 mM) for 10 min at 37° C., and the ATP level were measured using an assay kit from Sigma Chemical Co. (St. Louis, Mo., USA). LDH activity was spectrophotometrically measured as described (Yim and Ko 1999).

H9c2 cells [1] = test: Xanthine/xanthine oxidase-induced cytotoxicity (LDH leakage) in H9c2 cells; type: cell-based, rat; settings: 6.25 μM
Description: (§1) H9c2 cells, a permanent cell line derived from cardiac myoblasts of rat embryo, have early been characterized as a suitable model of myocardial cells [Hescheler et al. 1991]. H9c2 cells were cultured as monolayers in Dulbecco's modified Eagle's medium (GIBCO BRL) supplemented with 10% (v/v) fetal bovine serum. The medium contained glucose (4.5 g/L) and glutamine (4.5 mM), supplemented with NaHCO3 (17 mM), penicillin (100 IU/ml), and streptomycin (100 μg/ml). Cells were grown under an atmosphere of 5% CO2 in air at 37° C. The medium was replaced by fresh medium every 2 or 3 days. A stock of cells was grown in a 75 cm culture flask and split before confluence at a subcultivation ratio of 1:10. Cells used for experiments were seeded at a density of 3.75×10^4 cells/well on a 12-well culture plate, and the cells were grown for 24 h to about 80% confluence prior to drug treatment.
Cultured H9c2 cells were treated with (−) Schisandrin B, (+) Schisandrin B or (±) Schisandrin B (dissolved in DMSO) at 6.25 μM (0.2% DMSO final concentration) for increasing periods of time. Control cells were given the vehicle (i.e. DMSO) only. Immediately following the drug or vehicle pretreatment, the cells were challenged with a mixture of xanthine (X) (0.1 mM) and xanthine oxidase (XO) (0.4 U/ml) for 4 h. The control cells were treated with the medium only. After the X/XO challenge, the medium was taken for the measurement of LDH activity, a biochemical index of cellular injury.

H9c2 cells [2] = test: Menadione-induced toxicity (LDH) in H9c2 cells; type: cell-based, rat
Description: as §1
Cultured H9c2 cells were treated with (−) Schisandrin B, (+) Schisandrin B or (±) Schisandrin B (dissolved in DMSO) at 6.25 μM (0.2% DMSO final concentration) for 16 h. Control cells were given the vehicle (i.e. DMSO) only. Immediately following the drug or vehicle pretreatment, the cells were challenged with menadione (dissolved in ethanol) at 12.5 μM (0.2% ethanol final concentration) for 4 h. The control cells were treated with the medium containing 0.2% ethanol only. After the menadione challenge, the medium was taken for the measurement of LDH activity, an biochemical index of cell injury.

[3] = system: mitochondria of brain, heart, liver and skeletal muscle; test: Mitochondrial ATP generation capacity in various tissues of young female rats; type: in vivo, rat; settings: 15 days; for ATP generation: (−) Sch B, α-LA, α-Toc at daily 10, 5 and 70 mg/kg respectively
[4] = female rats, 1 mg/kg daily oral
[5] = female rats, 10 mg/kg daily oral
[6] = X/XO challenge, 16 h post-dosing
[7] = MENADIONE 12.5 μM for 4 h, drug 6.25 μM for 16 h

COc1cc2c(c(OC)c1OC)-c1c(cc3c(c1OC)OCO3)CC(C)C(C)C2 (single isomer, unassigned; (-)) [(−) Sch B, (−) Schisandrin B]
Heat Shock Protein Level, Hsp70 (Hsp70; BRAIN): 0.49 ± 0.05 AU
Hsp70 level, percent increase vs untreated control (Hsp70; BRAIN): (77%)
Heat Shock Protein Level, Hsp70 (Hsp70; HEART): 0.71 ± 0.03 AU
Hsp70 level, percent increase vs untreated control (Hsp70; HEART): (17%)
Heat Shock Protein Level, Hsp70 (Hsp70; LIVER): 0.69 ± 0.001 AU
Hsp70 level, percent increase vs untreated control (Hsp70; LIVER): (45%)
Heat Shock Protein Level, Hsp70 (Hsp70; SKELETAL MUSCLE): 0.69 ± 0.07 AU
Hsp70 level, percent increase vs untreated control (Hsp70; SKELETAL MUSCLE): (57%)
ATP Generation, percent increase vs untreated control (Myocardial Mitochondria; [4]): (26%)
ATP generation (Myocardial Mitochondria; [4]): 4.11 ± 0.19^b μmol/min/mg protein
ATP Generation, percent increase vs untreated control (Myocardial Mitochondria; [5]): (78%)
ATP generation (Myocardial Mitochondria; [5]): 5.79 ± 0.37^b μmol/min/mg protein
ATP Generation, percent increase vs untreated control (Myocardial Mitochondria; male rats, 1 mg/kg daily oral): (99%)
ATP Generation, percent increase vs untreated control (Myocardial Mitochondria; male rats, 10 mg/kg daily oral): (141%)
ATP generation (Myocardial Mitochondria; male rats, 10 mg/kg daily oral): 6.74 ± 0.37^a μmol/min/mg protein
time of maximum extent of protection against X/XO-induced cell injury (LDH leakage) (H9c2 cells [1]; post-dosing): 16 h
LDH Leakage (H9c2 cells [1]; X/XO challenge, 0 h post-dosing (unpretreated control)): 34.8 ± 1.13 U/L
LDH Leakage (H9c2 cells [1]; X/XO challenge, 4 h post-dosing): 26.0 ± 0.92 U/L
LDH Leakage (H9c2 cells [1]; X/XO challenge, 8 h post-dosing): 22.0 ± 0.63 U/L
LDH Leakage (H9c2 cells [1]; [6]): 14.2 ± 0.35 U/L
LDH Leakage, percent protection vs unpretreated control (0 h) (H9c2 cells [1]; [6]): (78%)
LDH Leakage (H9c2 cells [1]; X/XO challenge, 24 h post-dosing): 17.5 ± 0.85 U/L
LDH Leakage (H9c2 cells [1]; X/XO challenge, 48 h post-dosing): 26.3 ± 0.41 U/L
LDH (H9c2 cells [2]; [7]): 20.6 ± 0.18 U/ml
LDH, percent protection vs menadione control (H9c2 cells [2]; [7]): (60%)
LDH (H9c2 cells [2]; NON-MENADIONE, 6.25 μM for 16 h): 14.3 ± 0.29 U/ml
ATP generation ([3]; BRAIN): 143 ± 2 percent control
ATP generation ([3]; HEART): 131 ± 4 percent control
ATP generation ([3]; LIVER): 134 ± 5 percent control
change in ATP generation in skeletal muscle tissue ([3]; SKELETAL MUSCLE, 10 mg/kg daily): No detectable change
ATP generation ([3]; SKELETAL MUSCLE): 105 ± 41 percent control

— patent publication US7531195B2, “Schisandrin B preparation” (priority 2005, dated 2009)
